Test results as given in the kinase profiling compilation of Christmann-Franck et al. (2016).
“And” between values parts separate entries of the source, which are not always exact repeats. Identical values can stand only once.

Tests used:
Assay in all cases: radiometric filter-binding kinase assay, Kinase HotSpot
Details in all cases: compound 0.5 µM; ATP 10 µM
ACVR1B (human) = ACVR1B (human) (UniProt P36896)
CAMK1 (human) = CAMK1 (human) (UniProt Q14012)
CAMK2D (human) = CAMK2D (human) (UniProt Q13557)
CDC42BPA (human) = CDC42BPA (human) (UniProt Q5VT25)
CDK7 CCNH MNAT1 (human) = CDK7 CCNH MNAT1 (human) (UniProt P50613+P51948+P51946)
CDK9 CCNK (human) = CDK9 CCNK (human) (UniProt O75909+P50750)
CDK9 CCNT1 (human) = CDK9 CCNT1 (human) (UniProt P50750+O60563)
CSK (human) = CSK (human) (UniProt P41240)
CSNK1G3 (human) = CSNK1G3 (human) (UniProt Q9Y6M4)
Chain of CSNK1G3 (human) (Q9Y6M4 whole entry, looked up): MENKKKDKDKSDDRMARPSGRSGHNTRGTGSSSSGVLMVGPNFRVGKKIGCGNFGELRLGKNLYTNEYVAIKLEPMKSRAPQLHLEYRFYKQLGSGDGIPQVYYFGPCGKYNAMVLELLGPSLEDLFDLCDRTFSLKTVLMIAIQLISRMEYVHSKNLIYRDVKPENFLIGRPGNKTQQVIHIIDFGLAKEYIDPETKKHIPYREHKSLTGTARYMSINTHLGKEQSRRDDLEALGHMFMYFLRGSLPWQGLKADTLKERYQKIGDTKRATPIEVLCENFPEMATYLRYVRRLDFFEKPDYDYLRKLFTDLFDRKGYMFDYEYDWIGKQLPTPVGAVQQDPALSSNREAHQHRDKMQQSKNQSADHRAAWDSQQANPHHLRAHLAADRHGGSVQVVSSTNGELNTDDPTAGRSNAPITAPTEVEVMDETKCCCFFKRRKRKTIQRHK

DAPK1 (human) = DAPK1 (human) (UniProt P53355)
DMPK (human) = DMPK (human) (UniProt Q09013)
EPHA4 (human) = EPHA4 (human) (UniProt P54764)
FGFR3 (human) = FGFR3 (human) (UniProt P22607)
FLT1 (human) = FLT1 (human) (UniProt P17948)
GSK3A (human) = GSK3A (human) (UniProt P49840)
[1] = biological target: JAK1 JH1 catalytic (human) (UniProt P23458)
LCK (human) = LCK (human) (UniProt P06239)
Chain of LCK (human) (P06239 whole entry, looked up): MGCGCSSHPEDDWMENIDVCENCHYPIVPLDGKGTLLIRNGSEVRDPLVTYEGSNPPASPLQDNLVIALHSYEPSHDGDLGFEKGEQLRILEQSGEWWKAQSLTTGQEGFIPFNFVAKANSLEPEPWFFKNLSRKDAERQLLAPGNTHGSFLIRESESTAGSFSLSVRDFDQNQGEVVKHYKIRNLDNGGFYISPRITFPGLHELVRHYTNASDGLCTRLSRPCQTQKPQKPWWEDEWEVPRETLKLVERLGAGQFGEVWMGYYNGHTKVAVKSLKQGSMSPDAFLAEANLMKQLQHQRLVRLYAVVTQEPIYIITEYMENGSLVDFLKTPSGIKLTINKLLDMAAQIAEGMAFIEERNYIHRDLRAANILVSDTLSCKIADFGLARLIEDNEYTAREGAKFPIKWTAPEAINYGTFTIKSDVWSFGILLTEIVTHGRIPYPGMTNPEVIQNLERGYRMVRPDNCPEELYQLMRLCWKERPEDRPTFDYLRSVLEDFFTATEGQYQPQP

LYN (human) = LYN (human) (UniProt P07948)
MAP3K14 (human) = MAP3K14 (human) (UniProt Q99558)
MAP3K8 (human) = MAP3K8 (human) (UniProt P41279)
MAPKAPK5 (human) = MAPKAPK5 (human) (UniProt Q8IW41)
MARK1 (human) = MARK1 (human) (UniProt Q9P0L2)
MERTK (human) = MERTK (human) (UniProt Q12866)
Chain of MERTK (human) (Q12866 whole entry, looked up): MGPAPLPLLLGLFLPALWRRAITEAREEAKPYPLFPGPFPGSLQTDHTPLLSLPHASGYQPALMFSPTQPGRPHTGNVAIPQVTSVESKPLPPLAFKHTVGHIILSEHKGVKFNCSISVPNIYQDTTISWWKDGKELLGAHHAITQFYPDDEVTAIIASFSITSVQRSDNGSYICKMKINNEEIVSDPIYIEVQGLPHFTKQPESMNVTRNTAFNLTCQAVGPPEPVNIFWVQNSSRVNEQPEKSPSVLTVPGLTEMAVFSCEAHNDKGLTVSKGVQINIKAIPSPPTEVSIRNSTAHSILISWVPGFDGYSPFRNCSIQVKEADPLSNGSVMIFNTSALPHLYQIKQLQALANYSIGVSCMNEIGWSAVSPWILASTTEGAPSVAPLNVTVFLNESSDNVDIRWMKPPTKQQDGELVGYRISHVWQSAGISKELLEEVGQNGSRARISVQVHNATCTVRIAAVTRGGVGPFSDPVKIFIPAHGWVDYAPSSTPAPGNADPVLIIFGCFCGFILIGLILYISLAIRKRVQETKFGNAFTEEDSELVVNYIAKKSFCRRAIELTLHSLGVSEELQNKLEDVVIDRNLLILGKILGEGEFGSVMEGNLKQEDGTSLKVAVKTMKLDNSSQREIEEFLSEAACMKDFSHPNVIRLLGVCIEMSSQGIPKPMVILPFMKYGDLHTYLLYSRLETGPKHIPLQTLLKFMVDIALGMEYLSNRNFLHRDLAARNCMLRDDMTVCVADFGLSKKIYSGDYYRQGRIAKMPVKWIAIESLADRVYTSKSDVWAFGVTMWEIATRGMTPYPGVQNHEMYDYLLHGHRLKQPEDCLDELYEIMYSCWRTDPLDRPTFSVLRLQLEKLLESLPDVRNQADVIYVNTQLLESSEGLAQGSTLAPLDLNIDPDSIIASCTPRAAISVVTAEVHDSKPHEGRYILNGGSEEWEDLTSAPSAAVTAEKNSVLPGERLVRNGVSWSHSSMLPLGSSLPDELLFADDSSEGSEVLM

NTRK3 (human) = NTRK3 (human) (UniProt Q16288)
NUAK1 (human) = NUAK1 (human) (UniProt O60285)
NUAK2 (human) = NUAK2 (human) (UniProt Q9H093)
Chain of NUAK2 (human) (Q9H093 whole entry, looked up): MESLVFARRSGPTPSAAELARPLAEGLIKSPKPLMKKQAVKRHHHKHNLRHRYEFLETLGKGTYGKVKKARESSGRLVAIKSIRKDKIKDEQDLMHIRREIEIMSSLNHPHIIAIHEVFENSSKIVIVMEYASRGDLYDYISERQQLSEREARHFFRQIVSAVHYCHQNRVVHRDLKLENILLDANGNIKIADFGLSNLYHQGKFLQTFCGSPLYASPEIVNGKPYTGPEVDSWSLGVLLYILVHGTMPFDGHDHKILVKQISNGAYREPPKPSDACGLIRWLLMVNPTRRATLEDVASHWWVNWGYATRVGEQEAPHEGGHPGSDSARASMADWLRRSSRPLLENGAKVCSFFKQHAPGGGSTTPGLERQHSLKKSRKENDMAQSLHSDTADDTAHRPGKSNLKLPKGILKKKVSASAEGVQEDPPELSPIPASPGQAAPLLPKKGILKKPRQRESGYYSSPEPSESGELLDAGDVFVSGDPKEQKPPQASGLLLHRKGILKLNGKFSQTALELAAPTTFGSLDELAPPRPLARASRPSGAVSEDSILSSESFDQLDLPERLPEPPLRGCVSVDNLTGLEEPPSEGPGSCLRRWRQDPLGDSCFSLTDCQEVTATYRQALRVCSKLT

PAK2 (human) = PAK2 (human) (UniProt Q13177)
PAK3 (human) = PAK3 (human) (UniProt O75914)
Chain of PAK3 (human) (O75914 whole entry, looked up): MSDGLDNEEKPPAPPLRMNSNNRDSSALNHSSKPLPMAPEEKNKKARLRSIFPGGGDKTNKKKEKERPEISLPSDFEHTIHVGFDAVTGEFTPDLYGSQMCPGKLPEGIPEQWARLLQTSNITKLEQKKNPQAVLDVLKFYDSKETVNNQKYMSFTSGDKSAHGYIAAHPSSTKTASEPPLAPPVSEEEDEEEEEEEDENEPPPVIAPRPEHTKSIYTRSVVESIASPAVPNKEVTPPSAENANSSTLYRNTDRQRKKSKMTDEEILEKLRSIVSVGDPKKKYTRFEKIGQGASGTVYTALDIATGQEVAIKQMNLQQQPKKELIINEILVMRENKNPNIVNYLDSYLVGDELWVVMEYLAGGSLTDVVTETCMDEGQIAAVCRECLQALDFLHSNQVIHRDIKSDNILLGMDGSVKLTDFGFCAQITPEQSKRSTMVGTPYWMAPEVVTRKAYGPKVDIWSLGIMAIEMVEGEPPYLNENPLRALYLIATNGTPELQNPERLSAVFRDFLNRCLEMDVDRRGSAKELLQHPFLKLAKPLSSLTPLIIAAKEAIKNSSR

PDGFRA (human) = PDGFRA (human) (UniProt P16234)
PHKG1 (human) = PHKG1 (human) (UniProt Q16816)
PKN1 (human) = PKN1 (human) (UniProt Q16512)
PNCK (human) = PNCK (human) (UniProt Q6P2M8)
PRKACA (human) = PRKACA (human) (UniProt P17612)
PRKCH (human) = PRKCH (human) (UniProt P24723)
PTK2 (human) = PTK2 (human) (UniProt Q05397)
PTK2B (human) = PTK2B (human) (UniProt Q14289)
Chain of PTK2B (human) (Q14289 whole entry, looked up): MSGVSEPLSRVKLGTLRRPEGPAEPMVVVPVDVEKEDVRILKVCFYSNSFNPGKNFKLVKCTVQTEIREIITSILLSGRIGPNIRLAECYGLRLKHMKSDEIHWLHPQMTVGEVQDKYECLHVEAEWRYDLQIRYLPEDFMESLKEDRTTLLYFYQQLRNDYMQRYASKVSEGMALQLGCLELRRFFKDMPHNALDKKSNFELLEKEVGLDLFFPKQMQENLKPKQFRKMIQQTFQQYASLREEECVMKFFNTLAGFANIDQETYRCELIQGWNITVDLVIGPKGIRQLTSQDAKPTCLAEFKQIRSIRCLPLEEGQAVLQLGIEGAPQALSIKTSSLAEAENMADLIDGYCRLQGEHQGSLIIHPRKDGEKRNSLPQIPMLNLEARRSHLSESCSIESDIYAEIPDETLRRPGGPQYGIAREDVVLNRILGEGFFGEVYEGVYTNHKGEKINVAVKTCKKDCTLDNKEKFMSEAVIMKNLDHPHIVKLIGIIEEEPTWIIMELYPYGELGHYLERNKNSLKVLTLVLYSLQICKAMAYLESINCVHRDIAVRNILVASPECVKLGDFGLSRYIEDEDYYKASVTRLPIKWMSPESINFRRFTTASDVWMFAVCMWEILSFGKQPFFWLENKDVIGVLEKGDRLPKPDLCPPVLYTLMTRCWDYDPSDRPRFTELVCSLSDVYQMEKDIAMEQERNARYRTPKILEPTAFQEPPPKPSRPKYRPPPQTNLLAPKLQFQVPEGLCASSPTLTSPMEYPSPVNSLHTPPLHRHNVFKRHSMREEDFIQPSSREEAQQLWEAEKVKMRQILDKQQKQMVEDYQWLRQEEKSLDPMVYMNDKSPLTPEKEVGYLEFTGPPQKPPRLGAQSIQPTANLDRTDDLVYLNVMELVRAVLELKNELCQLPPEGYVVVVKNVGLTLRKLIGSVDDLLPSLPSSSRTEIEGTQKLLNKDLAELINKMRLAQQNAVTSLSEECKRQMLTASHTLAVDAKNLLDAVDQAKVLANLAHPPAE

SRPK3 (human) = SRPK3 (human) (UniProt Q9UPE1)
STK3 (human) = STK3 (human) (UniProt Q13188)
TEC (human) = TEC (human) (UniProt P42680)
TSSK2 (human) = TSSK2 (human) (UniProt Q96PF2)
Chain of TSSK2 (human) (Q96PF2 whole entry, looked up): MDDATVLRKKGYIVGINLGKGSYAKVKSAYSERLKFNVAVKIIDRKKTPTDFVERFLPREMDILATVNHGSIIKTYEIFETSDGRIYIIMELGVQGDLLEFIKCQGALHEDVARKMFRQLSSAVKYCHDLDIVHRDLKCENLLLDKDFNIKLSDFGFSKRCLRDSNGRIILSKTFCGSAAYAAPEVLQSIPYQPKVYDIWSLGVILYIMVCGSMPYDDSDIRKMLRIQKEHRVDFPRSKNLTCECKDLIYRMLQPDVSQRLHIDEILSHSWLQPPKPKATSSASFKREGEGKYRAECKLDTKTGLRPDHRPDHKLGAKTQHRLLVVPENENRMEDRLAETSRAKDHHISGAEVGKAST

WEE1 (human) = WEE1 (human) (UniProt P30291)
DYRK2 (human) = DYRK2 (human) (UniProt Q92630)

Chain of ACVR1B (human) (P36896 whole entry, looked up): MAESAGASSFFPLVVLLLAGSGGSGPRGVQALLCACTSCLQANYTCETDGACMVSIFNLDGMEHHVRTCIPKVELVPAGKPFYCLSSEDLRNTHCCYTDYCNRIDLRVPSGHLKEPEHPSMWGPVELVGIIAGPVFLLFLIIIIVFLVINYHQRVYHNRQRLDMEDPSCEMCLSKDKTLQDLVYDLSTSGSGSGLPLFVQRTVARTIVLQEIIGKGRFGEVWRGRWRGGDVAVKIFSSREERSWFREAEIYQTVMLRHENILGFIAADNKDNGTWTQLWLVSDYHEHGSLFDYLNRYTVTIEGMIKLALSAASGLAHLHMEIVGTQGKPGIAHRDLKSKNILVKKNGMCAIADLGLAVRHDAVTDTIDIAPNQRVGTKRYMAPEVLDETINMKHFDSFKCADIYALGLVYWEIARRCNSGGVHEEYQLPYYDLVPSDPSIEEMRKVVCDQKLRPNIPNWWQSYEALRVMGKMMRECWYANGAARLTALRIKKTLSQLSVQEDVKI

## O=C1Nc2cc(Br)ccc2/C1=C1/Nc2ccccc2/C1=N\O
ACVR1B (human)
  residual activity: 100%
CAMK1 (human)
  residual activity: 96%
CAMK2D (human)
  residual activity: 23%
CDC42BPA (human)
  residual activity: 94%
CDK7 CCNH MNAT1 (human)
  residual activity: 79.1%
CDK9 CCNK (human)
  residual activity: 37.5%
CDK9 CCNT1 (human)
  residual activity: 68.2%
CSK (human)
  residual activity: 65.8%
CSNK1G3 (human)
  residual activity: 78.3%
DAPK1 (human)
  residual activity: 90%
DMPK (human)
  residual activity: 124%
EPHA4 (human)
  residual activity: 90.2%
FGFR3 (human)
  residual activity: 54.6%
FLT1 (human)
  residual activity: 75.1%
GSK3A (human)
  residual activity: 3.6%
[1]
  residual activity: 76.2%
LCK (human)
  residual activity: 39%
LYN (human)
  residual activity: 14.7% and 5.98%
MAP3K14 (human)
  residual activity: 89.6%
MAP3K8 (human)
  residual activity: 101%
MAPKAPK5 (human)
  residual activity: 82.7%
MARK1 (human)
  residual activity: 64.2%
MERTK (human)
  residual activity: 79.4%
NTRK3 (human)
  residual activity: 4.98%
NUAK1 (human)
  residual activity: 15.7%
NUAK2 (human)
  residual activity: 73.4%
PAK2 (human)
  residual activity: 90.9%
PAK3 (human)
  residual activity: 99.7%
PDGFRA (human)
  residual activity: 68.4%
PHKG1 (human)
  residual activity: 41.8%
PKN1 (human)
  residual activity: 82.2%
PNCK (human)
  residual activity: 105%
PRKACA (human)
  residual activity: 106%
PRKCH (human)
  residual activity: 78.6%
PTK2 (human)
  residual activity: 89%
PTK2B (human)
  residual activity: 56.7%
SRPK3 (human)
  residual activity: 96.4%
STK3 (human)
  residual activity: 20.5%
TEC (human)
  residual activity: 104%
TSSK2 (human)
  residual activity: 101%
WEE1 (human)
  residual activity: 96%

## Nc1nc(Nc2ccc(S(N)(=O)=O)cc2)nn1C(=S)Nc1c(F)cccc1F
ACVR1B (human)
  residual activity: 92.2%
CAMK2D (human)
  residual activity: 15.6%
CDC42BPA (human)
  residual activity: 54.6%
CDK7 CCNH MNAT1 (human)
  residual activity: 43.6%
CDK9 CCNK (human)
  residual activity: 7.46%
CDK9 CCNT1 (human)
  residual activity: 15.6%
CSK (human)
  residual activity: 76.8%
CSNK1G3 (human)
  residual activity: 20.8%
DAPK1 (human)
  residual activity: 81.3%
DMPK (human)
  residual activity: 78.4%
DYRK2 (human)
  residual activity: 60.4%
EPHA4 (human)
  residual activity: 54.8%
FGFR3 (human)
  residual activity: 4.96%
FLT1 (human)
  residual activity: 11.4%
GSK3A (human)
  residual activity: 6.3%
[1]
  residual activity: 4.86%
LCK (human)
  residual activity: 23.6%
MAP3K14 (human)
  residual activity: 29.1%
MAP3K8 (human)
  residual activity: 127%
MAPKAPK5 (human)
  residual activity: 52.2%
MARK1 (human)
  residual activity: 2.68%
MERTK (human)
  residual activity: 14.8%
NTRK3 (human)
  residual activity: 3.59%
NUAK1 (human)
  residual activity: 2.13%
NUAK2 (human)
  residual activity: 9.73%
PAK2 (human)
  residual activity: 26.4%
PAK3 (human)
  residual activity: 35.4%
PDGFRA (human)
  residual activity: 56.4%
PHKG1 (human)
  residual activity: 26%
PKN1 (human)
  residual activity: 9.7%
PNCK (human)
  residual activity: 89.1%
PRKACA (human)
  residual activity: 78.2%
PRKCH (human)
  residual activity: 45.7%
PTK2 (human)
  residual activity: 25.3%
PTK2B (human)
  residual activity: 33.6%
SRPK3 (human)
  residual activity: 48.7%
STK3 (human)
  residual activity: 1.33%
TEC (human)
  residual activity: 106%
TSSK2 (human)
  residual activity: 91.3%
WEE1 (human)
  residual activity: 100%

## O=C1Cc2c([nH]c3ccc([N+](=O)[O-])cc23)-c2ccccc2N1
ACVR1B (human)
  residual activity: 109%
CAMK1 (human)
  residual activity: 94.8%
CAMK2D (human)
  residual activity: 79.3%
CDC42BPA (human)
  residual activity: 96.2%
CDK7 CCNH MNAT1 (human)
  residual activity: 99.9%
CDK9 CCNK (human)
  residual activity: 24.2%
CDK9 CCNT1 (human)
  residual activity: 22.6%
CSK (human)
  residual activity: 96.6%
CSNK1G3 (human)
  residual activity: 90%
DAPK1 (human)
  residual activity: 104%
DMPK (human)
  residual activity: 91.6%
DYRK2 (human)
  residual activity: 72%
EPHA4 (human)
  residual activity: 96.5%
FGFR3 (human)
  residual activity: 90.5%
FLT1 (human)
  residual activity: 98.2%
GSK3A (human)
  residual activity: 0.971%
[1]
  residual activity: 97.8%
LCK (human)
  residual activity: 81.2%
MAP3K14 (human)
  residual activity: 132%
MAP3K8 (human)
  residual activity: 99%
MAPKAPK5 (human)
  residual activity: 92.7%
MARK1 (human)
  residual activity: 62.5%
MERTK (human)
  residual activity: 83.1%
NTRK3 (human)
  residual activity: 63.4%
NUAK1 (human)
  residual activity: 12%
NUAK2 (human)
  residual activity: 68.6%
PAK2 (human)
  residual activity: 41%
PAK3 (human)
  residual activity: 80.4%
PDGFRA (human)
  residual activity: 91.7%
PHKG1 (human)
  residual activity: 9.22%
PKN1 (human)
  residual activity: 88.2%
PNCK (human)
  residual activity: 107%
PRKACA (human)
  residual activity: 87.4%
PRKCH (human)
  residual activity: 96.9%
PTK2 (human)
  residual activity: 88.1%
PTK2B (human)
  residual activity: 82.9%
SRPK3 (human)
  residual activity: 92.7%
STK3 (human)
  residual activity: 70.3%
TEC (human)
  residual activity: 137%
TSSK2 (human)
  residual activity: 88.3%
WEE1 (human)
  residual activity: 98.2%
